# How the values were obtained:
# [1] = DRUGMATRIX: Imidazoline I2, Central radioligand binding (ligand: [3H] Idazoxan); format: cell membranes, Rattus norvegicus, Wistar, Cerebral cortex, Membrane; settings: Not Active = under 50% inhibition at 10 µM
# Cannabinoid receptor 1 = Cannabinoid receptor 1 (Homo sapiens, UniProt P21554); format: cell membranes, Membrane; settings: chem-1; note: in other assays of this panel Not Active means under 50% inhibition at 10 µM
# Cytochrome P450 3A4 = Cytochrome P450 3A4 (Homo sapiens, UniProt P08684); settings: bti-tn-5b1-4; note: in other assays of this panel Not Active means under 50% inhibition at 10 µM
# Chain of Cytochrome P450 3A4 (P08684 whole entry): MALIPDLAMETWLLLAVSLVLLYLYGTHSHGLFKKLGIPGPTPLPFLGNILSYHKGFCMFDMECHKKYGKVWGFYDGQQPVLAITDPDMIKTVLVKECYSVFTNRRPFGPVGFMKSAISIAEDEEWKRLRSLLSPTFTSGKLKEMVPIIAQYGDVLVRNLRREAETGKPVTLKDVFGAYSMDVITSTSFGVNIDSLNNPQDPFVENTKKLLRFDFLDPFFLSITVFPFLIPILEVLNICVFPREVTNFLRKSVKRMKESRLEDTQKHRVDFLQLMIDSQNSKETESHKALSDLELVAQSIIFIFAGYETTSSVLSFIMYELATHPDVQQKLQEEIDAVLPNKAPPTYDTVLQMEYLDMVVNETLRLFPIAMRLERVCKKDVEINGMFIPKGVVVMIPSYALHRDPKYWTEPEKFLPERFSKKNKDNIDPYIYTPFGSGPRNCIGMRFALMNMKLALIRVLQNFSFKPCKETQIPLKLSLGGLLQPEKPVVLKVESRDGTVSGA
# Cytochrome P450 1A2 = target: T1, Cytochrome P450 1A2 (Homo sapiens, UniProt P05177); settings: bti-tn-5b1-4; note: in other assays of this panel Not Active means under 50% inhibition at 10 µM
# T1 sequence (P05177 whole entry): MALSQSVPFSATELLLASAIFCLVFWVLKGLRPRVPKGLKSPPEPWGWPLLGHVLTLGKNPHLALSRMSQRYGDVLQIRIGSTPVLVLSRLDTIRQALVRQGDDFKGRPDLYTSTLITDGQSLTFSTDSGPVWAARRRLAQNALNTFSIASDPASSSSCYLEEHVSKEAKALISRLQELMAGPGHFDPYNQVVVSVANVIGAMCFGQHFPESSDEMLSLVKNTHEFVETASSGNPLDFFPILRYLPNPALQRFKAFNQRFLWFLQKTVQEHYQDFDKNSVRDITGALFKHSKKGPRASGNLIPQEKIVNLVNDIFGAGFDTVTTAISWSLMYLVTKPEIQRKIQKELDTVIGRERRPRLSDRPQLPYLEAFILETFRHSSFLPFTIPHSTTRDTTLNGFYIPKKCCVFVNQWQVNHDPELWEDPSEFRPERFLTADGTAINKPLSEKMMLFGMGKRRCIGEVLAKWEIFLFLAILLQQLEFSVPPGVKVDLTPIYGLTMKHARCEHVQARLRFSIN
# [2] = target: 5-hydroxytryptamine receptor 2B (Homo sapiens, UniProt P41595); format: cell membranes, CHO-K1, Membrane; note: in other assays of this panel Not Active means under 50% inhibition at 10 µM
# Chain of 5-hydroxytryptamine receptor 2B (P41595 whole entry): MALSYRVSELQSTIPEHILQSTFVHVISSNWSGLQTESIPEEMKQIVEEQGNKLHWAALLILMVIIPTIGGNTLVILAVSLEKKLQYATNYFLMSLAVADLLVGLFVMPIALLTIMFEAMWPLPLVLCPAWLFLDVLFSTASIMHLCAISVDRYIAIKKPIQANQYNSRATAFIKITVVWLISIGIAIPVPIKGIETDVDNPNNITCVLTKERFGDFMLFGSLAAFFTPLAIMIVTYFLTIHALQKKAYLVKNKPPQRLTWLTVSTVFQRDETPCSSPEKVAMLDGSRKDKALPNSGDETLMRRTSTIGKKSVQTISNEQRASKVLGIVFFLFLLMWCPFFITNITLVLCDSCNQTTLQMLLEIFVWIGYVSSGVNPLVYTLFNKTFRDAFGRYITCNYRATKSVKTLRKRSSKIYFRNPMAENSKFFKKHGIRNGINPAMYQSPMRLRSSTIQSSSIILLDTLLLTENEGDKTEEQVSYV
# D(3) dopamine receptor = D(3) dopamine receptor (Homo sapiens, UniProt P35462); test: DRUGMATRIX: Dopamine D3 radioligand binding (ligand: [3H] Spiperone); format: cell membranes, CHO, Membrane
# Chain of D(3) dopamine receptor (P35462 whole entry): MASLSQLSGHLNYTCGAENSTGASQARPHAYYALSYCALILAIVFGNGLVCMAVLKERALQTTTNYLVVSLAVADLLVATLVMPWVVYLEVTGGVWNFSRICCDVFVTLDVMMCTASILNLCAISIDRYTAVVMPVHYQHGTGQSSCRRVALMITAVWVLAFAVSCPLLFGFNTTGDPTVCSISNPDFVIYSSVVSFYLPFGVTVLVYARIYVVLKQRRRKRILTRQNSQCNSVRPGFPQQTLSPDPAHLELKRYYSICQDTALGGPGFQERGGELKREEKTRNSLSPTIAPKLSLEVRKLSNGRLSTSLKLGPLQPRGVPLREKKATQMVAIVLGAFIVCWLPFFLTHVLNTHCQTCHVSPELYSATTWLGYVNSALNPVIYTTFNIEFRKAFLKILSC
# Chain of Cannabinoid receptor 1 (P21554 whole entry): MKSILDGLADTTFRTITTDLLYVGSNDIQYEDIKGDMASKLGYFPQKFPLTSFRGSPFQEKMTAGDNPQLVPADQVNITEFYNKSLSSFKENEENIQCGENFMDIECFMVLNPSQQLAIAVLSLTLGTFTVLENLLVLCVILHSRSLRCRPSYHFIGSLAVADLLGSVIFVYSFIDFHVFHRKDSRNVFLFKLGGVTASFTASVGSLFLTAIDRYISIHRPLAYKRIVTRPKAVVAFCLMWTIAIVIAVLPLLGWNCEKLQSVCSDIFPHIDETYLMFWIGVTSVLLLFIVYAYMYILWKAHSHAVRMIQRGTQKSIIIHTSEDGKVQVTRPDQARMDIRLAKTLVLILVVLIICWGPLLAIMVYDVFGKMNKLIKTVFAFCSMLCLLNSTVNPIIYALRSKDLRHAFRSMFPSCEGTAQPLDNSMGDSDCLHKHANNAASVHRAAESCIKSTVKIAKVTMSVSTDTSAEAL
Molecule,IC50 [1],Ki [1],IC50 (Cannabinoid receptor 1),IC50 (Cytochrome P450 3A4),Ki (Cytochrome P450 3A4),IC50 (Cytochrome P450 1A2),Ki (Cytochrome P450 1A2),IC50 ([2]; cho-k1),IC50 (D(3) dopamine receptor; cho),Ki (Cannabinoid receptor 1),Ki ([2]; cho-k1),Ki (D(3) dopamine receptor; cho),IC50 ([1]; read-out: IC50),Ki ([1]; read-out: Ki),IC50 ([2]; read-out: IC50),Ki ([2]; read-out: Ki),IC50 (D(3) dopamine receptor; read-out: IC50),Ki (D(3) dopamine receptor; read-out: Ki)
C=C(CC)C(=O)c1ccc(OCC(=O)O)c(Cl)c1Cl [ETHACRYNIC ACID],Not Active,Not Active,Not Active,Not Active,Not Active,Not Active,Not Active,Not Active,Not Active,,,,,,,,,
CC(C(=O)O)c1ccc(-c2ccccc2)c(F)c1 (stereo unspecified) [FLURBIPROFEN],Not Active,Not Active,Not Active,Not Active,Not Active,Not Active,Not Active,Not Active,Not Active,,,,,,,,,
COc1ccccc1OCC(O)COC(N)=O (stereo unspecified) [METHOCARBAMOL],Not Active,Not Active,Not Active,Not Active,Not Active,Not Active,Not Active,Not Active,Not Active,,,,,,,,,
CC(C(=O)O)c1ccc(CC2CCCC2=O)cc1 (stereo unspecified) [LOXOPROFEN],Not Active,Not Active,Not Active,Not Active,Not Active,Not Active,Not Active,Not Active,Not Active,,,,,,,,,
CCCCC1C(=O)N(c2ccccc2)N(c2ccccc2)C1=O [PHENYLBUTAZONE],Not Active,Not Active,Not Active,Not Active,Not Active,Not Active,Not Active,Not Active,Not Active,,,,,,,,,
CCN[C@@H](C)Cc1cccc(C(F)(F)F)c1 [DEXFENFLURAMINE],Not Active,Not Active,Not Active,Not Active,Not Active,Not Active,Not Active,Not Active,Not Active,,,,,,,,,
COc1ccccc1OCC(O)CO (stereo unspecified) [GUAIFENESIN],Not Active,Not Active,Not Active,,,,,Not Active,Not Active,,,,,,,,,
CCC(=O)O[C@H]1[C@H](O[C@@H]2[C@@H](C)[C@H](O[C@H]3C[C@@](C)(OC)[C@@H](O)[C@H](C)O3)[C@@H](C)C(=O)O[C@H](CC)[C@@](C)(O)[C@H](O)[C@@H](C)C(=O)[C@H](C)C[C@@]2(C)O)O[C@H](C)C[C@@H]1N(C)C [ERYTHROMYCIN PROPIONATE],Not Active,Not Active,Not Active,Not Active,Not Active,Not Active,Not Active,Not Active,Not Active,,,,,,,,,
C=C1/C(=C\C=C2/CCC[C@]3(C)[C@@H]([C@H](C)CCCC(C)C)CC[C@@H]23)C[C@@H](O)C[C@@H]1O [ALFACALCIDOL],Not Active,Not Active,Not Active,Not Active,Not Active,Not Active,Not Active,Not Active,Not Active,,,,,,,,,
CS(=O)(=O)OCCCCOS(C)(=O)=O [BUSULFAN],Not Active,Not Active,Not Active,Not Active,Not Active,Not Active,Not Active,Not Active,Not Active,,,,,,,,,
C[C@]12CCC(=O)C=C1CC[C@@H]1[C@@H]2[C@@H](O)C[C@@]2(C)[C@H]1CC[C@]2(O)C(=O)CO [HYDROCORTISONE],Not Active,Not Active,Not Active,Not Active,Not Active,Not Active,Not Active,Not Active,Not Active,,,,,,,,,
POLYVINYL ALCOHOL,Not Active,Not Active,Not Active,Not Active,Not Active,Not Active,Not Active,Not Active,Not Active,Not Active,Not Active,Not Active,,,,,,
COBALT(II) ACETYLACETONATE,Not Active,Not Active,Not Active,Not Active,Not Active,Not Active,Not Active,Not Active,Not Active,Not Active,Not Active,Not Active,,,,,,
Nc1nc(N)nc(NC2CC2)n1 [CYROMAZINE],Not Active,Not Active,Not Active,Not Active,Not Active,Not Active,Not Active,Not Active,Not Active,,,,,,,,,
Cc1cn[nH]c1 [FOMEPIZOLE],Not Active,Not Active,Not Active,,,,,Not Active,Not Active,,,,,,,,,
CN1C[C@H](C(=O)N[C@]2(C)O[C@@]3(O)[C@@H]4CCCN4C(=O)[C@H](Cc4ccccc4)N3C2=O)C[C@@H]2c3cccc4[nH]cc(c34)C[C@H]21 [DIHYDROERGOTAMINE],,,Not Active,,,Not Active,Not Active,,,,,,2.5 nM,1.67 nM,6.8 nM,4.33 nM,5.34 nM,1.81 nM
CCC[C@@H]1C[C@@H](C(=O)N[C@@H]([C@H]2O[C@H](SC)[C@H](O)[C@@H](O)[C@H]2O)[C@H](C)Cl)N(C)C1 [CLINDAMYCIN],Not Active,Not Active,Not Active,,,,,Not Active,Not Active,,,,,,,,,
C/C=C\c1ccc(O)c(OC)c1 [ISOEUGENOL],Not Active,Not Active,Not Active,,,,,Not Active,Not Active,,,,,,,,,
Cc1cnc(C(=O)NCCc2ccc(S(=O)(=O)NC(=O)NC3CCCCC3)cc2)cn1 [GLIPIZIDE],Not Active,Not Active,Not Active,,,,,Not Active,Not Active,,,,,,,,,
COc1cc(CNC(=O)CCCC/C=C/C(C)C)ccc1O [CAPSAICIN],Not Active,Not Active,Not Active,Not Active,Not Active,,,Not Active,Not Active,,,,,,,,,
CC[C@H](C)C(=O)O[C@H]1C[C@@H](C)C=C2C=C[C@H](C)[C@H](CC[C@@H]3C[C@@H](O)CC(=O)O3)[C@H]21 [LOVASTATIN],Not Active,Not Active,Not Active,,,Not Active,Not Active,Not Active,Not Active,,,,,,,,,
CC[C@H]1OC(=O)[C@H](C)[C@@H](O[C@H]2C[C@@](C)(OC)[C@@H](O)[C@H](C)O2)[C@H](C)[C@@H](O[C@@H]2O[C@H](C)C[C@H](N(C)C)[C@H]2O)[C@](C)(O)C[C@@H](C)CN(C)[C@H](C)[C@@H](O)[C@]1(C)O [AZITHROMYCIN],Not Active,Not Active,Not Active,,,Not Active,Not Active,Not Active,Not Active,,,,,,,,,
N[C@@H](Cc1ccc(F)cc1)C(=O)O,Not Active,Not Active,Not Active,,,,,Not Active,Not Active,,,,,,,,,
NC[C@H]1O[C@H](O[C@H]2[C@H](O)[C@@H](O[C@H]3O[C@H](CO)[C@@H](O)[C@H](N)[C@H]3O)[C@H](N)C[C@@H]2N)[C@H](O)[C@@H](O)[C@@H]1O [KANAMYCIN],Not Active,Not Active,Not Active,Not Active,Not Active,,,Not Active,Not Active,,,,,,,,,
COc1ccc2cc(CCC(C)=O)ccc2c1 [NABUMETONE],Not Active,Not Active,Not Active,Not Active,Not Active,,,Not Active,Not Active,,,,,,,,,
OCCN1CCN(CCCN2c3ccccc3Sc3ccc(Cl)cc32)CC1 [PERPHENAZINE],Not Active,Not Active,Not Active,,,,,Not Active,Not Active,,,,,,,,,
CCOC(=O)C1=C(C)NC(C)=C(C(=O)OC)C1c1cccc(Cl)c1Cl (stereo unspecified) [FELODIPINE],Not Active,Not Active,Not Active,,,,,Not Active,Not Active,,,,,,,,,
CC(C)C[C@H]1C(=O)N2CCC[C@H]2[C@]2(O)O[C@](NC(=O)[C@@H]3C=C4c5cccc6[nH]c(Br)c(c56)C[C@H]4N(C)C3)(C(C)C)C(=O)N12 [BROMOCRIPTINE],,,Not Active,,,Not Active,Not Active,,,,,,53 nM,35 nM,8.32 nM,5.29 nM,0.596 nM,0.202 nM
C[C@@H]1CC[C@H]2[C@@H](C)C(=O)O[C@@H]3O[C@@]4(C)CC[C@@H]1[C@]32OO4 [ARTEMISININ],Not Active,Not Active,Not Active,,,,,Not Active,Not Active,,,,,,,,,
CN1C(=O)CN=C(c2ccccc2)c2cc(Cl)ccc21 [DIAZEPAM],Not Active,Not Active,Not Active,,,,,Not Active,Not Active,,,,,,,,,

# Source: ChEMBL document CHEMBL1909046, “DrugMatrix in vitro pharmacology data”
